Reference: US11484576B2, “Methods of promoting corticospinal neuronal outgrowth in neuronal lesions using a pro-regenerative human osteopontin fragment” (THE CHILDREN'S MEDICAL CENTER CORPORATION, priority 2017, dated 2022)

Tests used:
injured mice = experiment: Adverse effects of systemic potassium channel blockers in injured mice; type: in vivo; settings: doses above 1 mg/kg (3 mg/kg tested), injured mice
Experimental: Chemicals and Antibodies. For systematic administration (i.p.), Quipazine [Sigma (Q1004), 0.2 mg/kg), SKF-82197 [Tocris (1447) 0.1 mg/kg], and 8-OH-DPAT [Tocris (0529), 0.1 mg/kg), 4AP [Sigma (275875), 1 mg/kg, 3 mg/kg), 4AP-MeOH [Santa Cruz (sc-267247), (1 mg/kg)] were dissolved in saline. Tamoxifen (Sigma, 10540-29-1) was dissolved in oil. For diphtheria toxin mediated cell ablation, we purchased the diptheria toxin from Sigma (D0564). For immunostaining, the primary antibody used were chicken anti-GFP [Abcam (Cat: ab13970)], rabbit anti-RFP [Abcam (Cat: ab34771)], rabbit anti-PKCγ [Santa Cruz (sc211)], rabbit anti-GFAP [DAKO (Z0334)]; rabbit anti-5-HT [Immunostar (20080)], rabbit-anti-IGFR [Santa Cruz (sc-712)] rabbit-anti-pIGFR[3 [Cell signaling technology (3024)], rabbit-anti-pS6 [Cell signaling technology (4857)], rat anti-CD68 [Bio-Rad (MCA 1957)], and Guinea pig-anti-Vglut1 [Synaptic Systems (135304)].
Pharmacological Treatment. […] A pilot experiment was performed and determined that 4AP (1 mg/kg, 3 mg/kg) and 4AP-MeOH (1 mg/kg) achieved their maximal effects within 1-3 hours post systematic administration (i.p.). […]

[1] = system: mice with T10 lateral hemisection; experiment: Irregular ladder walking after spinal cord T10 lateral hemisection; type: in vivo, mouse; settings: for performance in irregular ladder, overground, or treadmill walking: injured mice with AAV-OPN/IGF1 or AAV-PLAP, 14 weeks post injury, i.p., quipazine 0.2 mg/kg, 8-OH-DPAT 0.1 mg/kg, SKF 0.1 mg/kg; for error rate, irregular walking task, denervated hindlimb: 12 weeks after injury, AAV injected into sensorimotor cortex 1 day after injury
Experimental: (§1) Injury Models. […] Briefly, a midline incision was made over the thoracic vertebrae, followed by a T10 laminectomy. The unilateral hemisection was then performed carefully using both scalpel and micro-scissors, avoiding, to the greatest extent, the damage of the spinal cord dura. The muscle layers were then sutured and the skin was secured with wound clips. All mice received post hoc histological analysis and those with spared CST axons (incomplete lateral hemisection) or with significant less CST axons on the contra-lesional side (over lateral hemisection) at the lumbar spinal cord (L3), exemplified in FIG. 9A, were excluded for behavioral analysis.
Virus and Protein Injection.
Irregular Ladder Walking. […] Briefly, the ladder was elevated 30 cm above the ground. […] To prevent animals from learning the pattern, the irregular pattern was changed from trial to trial. All trials were video recorded (Hotshot e64, 100 fps) and paw placement was analyzed twice by blinded observers. Steps with precise placement of the center of the palm on the rung (for both forelimbs and hindlimbs) and digits closed (for forelimbs) were defined as correct steps (hit). All other steps were recorded as errors, which included two types: 1) Miss: when crossing the ladder, the forelimb/hindlimb either completely miss the rung or contact the rung with the wrist/heel instead of the paw; 2) Slip: when crossing the ladder, the mice use a few digits instead of the paw to place on the rungs, causing the subsequent slip on the rungs. The results were expressed as both percentage of total errors and percentage of different placement categories (hit, miss and slip).
(§2) Pharmacological Treatment. […] All behavioral tests were then accomplished between 1-3 hours post administration.

[2] = system: mice with T10 lateral hemisection; experiment: Ground walking and treadmill walking after T10 lateral hemisection; type: in vivo, mouse; settings: i.p.
Experimental: as §1, §2

p-S6 = experiment: phospho-S6 immunostaining (mTOR activation) in corticospinal neurons after cortical injection of recombinant proteins, T10 lateral hemisection; type: in vivo, mouse; settings: intact and axotomized CSNs; recombinant proteins injected into cortex
Description: (§3) However, it is unknown whether IGF1 triggers similar signaling activation in adult CSNs and, if so, whether it could be altered by OPN treatment. Thus CSNs were labeled by spinal injection of HiRet-GFP, performed T10 lateral hemisection, and then bilaterally injected recombinant IGF, OPN or OPN/IGF1 proteins were bilaterally injected into the cortex (FIG. 5A). In 3 days, the cortical sections from both injured and intact sides of adult mice were immunostained for three factors. Anti-IGFR, anti-phospho-IGFRβ, an indicator for the activation of the IGF-1 mediated signaling pathways (Hernandez-Sanchez et al., 1995; Siddle, 2012), and anti-phospho-S6 (p-S6), an established marker of mTOR activation, one of the downstream target of IGF1 mediated signaling pathways (Liu et al., 2010; Pollak, 2008).
(§4) Virus and Protein Injection. […]
(§5) Immunohistochemistry and Imaging. […] To quantify and compare fluorescence intensity of IGFR, pIGFRβ and pS6 in GFP+ CSNs (FIGS. 2C-2E), CST axons in the dorsal funiculus (FIG. 3G) and CD68 staining (FIG. 10F) and corticofugal projections at multiple subcortical areas (FIG. 7B), and axon density of the intact side in the spinal cord (FIGS. 8E and 8F), all images used for analysis under multiple conditions were taken using the same optical parameters and avoided for saturation. […]

p-IGFRβ = experiment: phospho-IGFRβ immunostaining in corticospinal neurons after cortical injection of recombinant proteins, T10 lateral hemisection; type: in vivo, mouse; settings: intact or axotomized mature CSNs; recombinant protein alone
Description: as §3, §4, §5

CST axons = experiment: CST regrowth (axon regeneration and midline-crossing sprouting) after T10 lateral hemisection; type: in vivo, mouse; settings: AAV-expressed; for regrowth of injured CST axons at the lesion site: horizontal sections covering the lesion; for sprouting of intact CST axons across midline into the denervated side: spinal levels below the injury site
Description: Since the mice treated with AAV-OPN/IGF1 were co-injected with AAV-channel rhodopsin (ChR2)-mCherry (AAV-ChR2-mCherry) or AAV-ChR2-YFP to the ipsi-lateral or contra-lateral cortex, respectively, at the termination of behavioral assessment, a post hoc examination of the T10 lateral hemisection histology was first performed. Mice with incomplete- or over-hemisection could be readily identified by analyzing labeled CST axons at the lumbar spinal cord and excluded from further analysis (FIG. 2A). CST regrowth was examined by preparing horizontal spinal cord sections covering the lesion sites to assess axon regeneration across the lesion site, and transverse sections of lower spinal cord segments to assess midline-crossing of CST axons from intact side. […] Thus, these sprouting axons play an important role in the observed functional recovery. Therefore, combined treatment of AAV-OPN and AAV-IGF1 not only promotes CST regrowth but also CST-dependent behavioral performance.
Axon Counting and Quantification. To quantify the number of sprouting axons, a horizontal line was firstly drawn through the central canal and across the lateral rim of the gray matter. Three vertical lines (Mid, Z1, and Z2) were drawn to divide the horizontal line into three equal parts, starting from the central canal to the lateral rim. While Mid denotes midline crossing fibers, Z1 and Z2 are for sprouting fibers at different distance from the midline. Only fibers crossing the three lines were counted on each section. The results were presented after normalization with the number of counted CST fibers at the medulla level.
For quantifying total labeled CST axon, AAV-ChR2-YFP (FIG. 4D) or AAV-ChR2-mCherry (FIGS. 4C, 7E and 8E) labeled CST fibers were counted at the level of medulla oblongata 1 mm proximal to the pyramidal decussation. Axons were estimated by counting 4 rectangular areas (about 10000 μm^2/area) per section on two adjacent sections.
To quantify the regenerating axons (FIG. 4D), the number of intersections of chR2-YFP-labeled fibers with a dorsal-ventral line positioned at a defined distance caudal from the lesion center was counted under a 25X objective. Fibers were counted on 3 sections with the main dorsal CST and 1-3 lateral sections with collaterals in the gray matter. The number of counted fibers was normalized by the number of labeled CST axons in the medulla and divided by the number of evaluated sections.

optic nerve axons = experiment: Optic nerve axon regeneration after optic nerve crush; type: in vivo, mouse
Experimental: The effects of various forms of active OPN were assessed for their capacity to promote optic nerve axon regeneration in an induced injury model. To express the various forms of active OPN AAVs expressing all forms of mouse OPN were injected intravitreally in anesthetized mice. To induce the injury model the optic nerves were crushed using a pair of forceps two weeks after intravitreal injection. Recombinant proteins (CNTF, IGF1, BDNF) were injected at 0 and 7 days after the crush (1 ul each, 1 ug/ul). Fluorescent cholera toxin beta subunit (CTB-555) was injected intravitreally 12 days after crush to trace the axons before the tissues were fixed 14 days after crush, sectioned and imaged.

In the case of `Nc1ccncc1` [4-AP, 4-aminopyridine], the “adverse effect at higher doses” value (injured mice) is reported as “seizures”, the “error rates, irregular ladder walking task” value ([1]; 1 mg/kg i.p., mice with OPN/IGF1 treatment) is reported as “showed a trend of reducing the error rates in mice with OPN/IGF1 treatment, but failed to reach statistical significance” and the “recovery of treadmill walking performance compared to the control” value [2] is reported as “neither 4-AP nor 4-AP-MeOH had significant effects”.

For `CCCN(CCC)C1CCc2cccc(O)c2C1` (stereo not drawn) [8-OH-DPAT], the “performance in irregular ladder, overground, or treadmill walking” value (shortened to “performance … or treadmill walking”) [1] was “failed to improve”.

In the case of `Oc1cc2c(c(Cl)c1O)CCNCC2c1ccccc1` (stereo not drawn) [SKF], the “performance … or treadmill walking” value [1] is reported as “failed to improve” and the “hindlimb performance in irregular ladder walking on the denervated side” value ([1]; injured mice, i.p. 0.1 mg/kg) is reported as “deteriorated the hindlimb performance”.

`c1ccc2nc(N3CCNCC3)ccc2c1` [quipazine] was tested, and the “performance … or treadmill walking” value [1] was “failed to improve”.

“IGF1: recombinant human insulin-like growth factor 1 (Peprotech)” was tested, and the “effect on p-S6 levels” value (p-S6) was “not IGF1 or OPN alone”, the “error rate, irregular walking task, denervated hindlimb” value [1] was roughly 70% and the “effect on p-IGFRβ” value (p-IGFRβ) was “no overt effect”. The “regrowth of injured CST axons at the lesion site” value (CST axons) was “significant die-back from the lesion site”, the “sprouting of intact CST axons across midline into the denervated side” value (CST axons) was “little sprouting across midline” and the “dose dependence of the regenerative effect” value (optic nerve axons; combined with OPN) was “dosage dependent”.

“OPN: recombinant osteopontin (OPN) protein (Peprotech), injected into cortex or intravitreally” was tested, and the “effect on p-S6 levels” value (p-S6) was “not IGF1 or OPN alone”, the “error rate, irregular walking task, denervated hindlimb” value [1] was roughly 70% and the “effect on p-IGFRβ” value (p-IGFRβ) was “no overt effect”. The “regrowth of injured CST axons at the lesion site” value (CST axons) was “significant die-back from the lesion site”, the “sprouting of intact CST axons across midline into the denervated side” value (CST axons) was “little sprouting across midline” and the “effect of OPN added to CNTF on optic nerve axon regeneration” value (optic nerve axons; OPN with CNTF) was “no added effect”. For the same molecule, the “effect of recombinant OPN protein on the optic nerve” value (optic nerve axons; intravitreal application, combined with IGF1 (FIG. 20)) was “pro-regenerative effects”.

B1: recombinant CNTF: recombinant CNTF protein injected after optic nerve crush (protein, UniProt P26441 1-200, looked up)
Ciliary neurotrophic factor: MAFTEHSPLTPHRRDLCSRSIWLARKIRSDLTALTESYVKHQGLNKNINLDSADGMPVASTDQWSELTEAERLQENLQAYRTFHVLLARLLEDQQVHFTPTEGDFHQAIHTLLLQVAAFAYQIEELMILLEYKIPRNEADGMPINVGDGGLFEKKLWGLKVLQELSQWTVRSIHDLRFISSHQTGIPARGSHYIANNKKM
B1 was tested, and the optic nerve regeneration (optic nerve axons; intravitreal AAV 2 weeks before crush, recombinant proteins at 0 and 7 days after crush (1 ul, 1 ug/ul), 14 days after crush) was “no effect”.
